Holding throughout (assay type): cell-based, human
In one test the test system is H2122. Description: Cell viability dose-response, H2122. To be noted: Homo sapiens; for IC50: NCI-H2122, Tables 3 and 4, read-out: IC50 (uM) vs indicated non-small cell lung cancer cell line H2122; for pIC50: NCI-H2122, 12-point dose-response starting at 50 micromolar, 3-fold increments, in duplicate, read-out: toxicity data, H2122. Summed up: (§1)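 Cells plated at 15% confluence in RPMI-1640 with 5% FBS and 2 mM L-glutamine, treated with compound in a 12-point, 3-fold dilution series from 50 micromolar, in duplicate. ATP measured by Cell Titer Glo after 4 days; IC50 taken from the dose-response curve.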

A further test has as its system H2009. Description: Cell viability dose-response, H2009. The settings on record: Homo sapiens, NCI-H2009; Tables 3 and 4; read-out: IC50 (uM) vs indicated non-small cell lung cancer cell line H2009. The essentials:
(§2)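 IC50 values derive from 12-point, 3-fold dilution curves starting at 50 micromolar, run in duplicate. ATP content was read by CellTiter-Glo after 4 days of compound treatment. Cells were plated at 15% confluence in RPMI-1640 containing 5% FBS and 2 mM L-glutamine.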

Another test concerns HBEC30KT. Description: Cell viability (ATP, Cell Titer Glo, 4 days), HBEC30KT. The settings on record: Homo sapiens. The procedure:
(§3) FIG. 6A. […] Cell viability is plotted vs. compound concentration. Compound was added to cells plated at 15% confluence in 96-well plates in RPMI-1640 media supplemented with 5% Fetal Bovine Serum and 2 mM L-Glutamine. After 4 days of incubation, ATP levels were measured using Cell Titer Glo (Promega). Data are presented as the average of 2 replicates ±SEM.
(§4) Selectivity may be measured by the half maximal inhibitory concentration (IC50), which, as used herein, is a measure of the effectiveness of a compound in killing cells. This quantitative measure indicates how much of a particular compound is needed to kill a particular cell population by half (e.g., as indicated by the amount of ATP). […] The IC50 can be determined by constructing a dose-response curve. The lower the IC50, the higher the potency, and the greater the difference between IC50 values for different cell lines (e.g., sensitive lines vs. insensitive lines, and sensitive lines vs. normal lines) the greater the selectivity. […]
For orientation: ATP-based viability assays read luminescence as a measure of living cells.

For another test, the system named is H2073. Briefly: Cell viability dose-response, H2073. To be noted: Homo sapiens, NCI-H2073, Tables 3 and 4; read-out: IC50 (uM) vs indicated non-small cell lung cancer cell line H2073. The procedure:
as §3, §4
(§5) With this information, we synthesized and tested a series of small molecules derived in conception from the oxalamide and chromone scaffold including N-acyl ureas, as shown in Tables 6-8. Each compound was tested in a 12-point dose-response study starting at 50 micromolar and decreasing in 3-fold increments to sub-nanomolar concentrations, in duplicate. Additionally, one or more additional cell line was tested in the same way.

A further test deals with H1819. Briefly: Cell viability dose-response, H1819. To be noted: Homo sapiens; for IC50: NCI-H1819, Tables 3 and 4, read-out: IC50 (uM) vs indicated non-small cell lung cancer cell line H1819; for pIC50: NCI-H1819, 12-point dose-response starting at 50 micromolar, 3-fold increments, in duplicate, read-out: toxicity data, H1819. Summed up: as §1
In the next test the test system is HCC4017. Briefly: Cell viability dose-response, HCC4017. To be noted: Homo sapiens, HCC4017, Tables 3 and 4; read-out: IC50 (uM) vs indicated non-small cell lung cancer cell line HCC4017. The method, then:
as §3, §4, §5

A further test deals with HCC44. Briefly: Cell viability dose-response, HCC44. The settings on record: Homo sapiens, HCC44, Tables 3 and 4; read-out: IC50 (uM) vs indicated non-small cell lung cancer cell line HCC44. The essentials:
as §2

Where [1] appears, read: Tables 3 and 4, read-out: HBEC30KT IC50.
Setting [2] is: 12-point dose-response starting at 50 micromolar, 3-fold increments, in duplicate, read-out: toxicity data, HBEC30KT.

Results on 33 molecules are retold here after patent US9789096B2, “Methods and compositions for selective and targeted cancer therapy” (Board of Regents of the University of Texas System, priority 2013, dated 2017).

What is called IC50 is the concentration at which inhibition is half-maximal.

SMILES strings stand for the structures. pIC50: −log10 of the molar value. Read-outs that look alike come from different tables or passages of the source. Some results are limits rather than exact numbers.

For `COc1ccc2nc(NC(=O)c3ccccc3)sc2c1` [SW202743], the IC50 in the test on H2122 came out at 0.538 µM; with H2009, 20.6 µM; in the test on H2073 it was 7.04 µM; in the test on H1819 it was 19.8 µM. For the same molecule, the pIC50 in the test on HBEC30KT (setting [1]) is 4.65.
The matching figures for `Cc1cccc(C(=O)Nc2nc3ccccc3s2)c1` [SW202755]: 0.734 µM, 53.9 µM, 25.1 µM, 47.8 µM and 3.98.
Consider `Cc1cc2sc(N)nc2cc1[N+](=O)[O-]` [SW202740], for which the IC50 was found to be 111 µM in the test on H2009, 114 µM with H2073 and 82.5 µM in the test on H1819. For the same molecule, the pIC50 with HBEC30KT (setting [1]) is 3.89.
As for `COc1cccc(C(=O)Nc2nc3ccc(OC)cc3s2)c1` [SW202747], the IC50 in the test with H2122 turned out to be 0.306 µM; in the test on H2009 it was 21.2 µM; with H2073 it was 10.3 µM; in the test with H1819, 20.5 µM. For the same molecule, the pIC50 with HBEC30KT (setting [1]) was 4.53.
In the case of `COc1ccc2nc(NC(=O)c3ccc(Br)cc3)sc2c1` [SW000931], the half-maximal inhibitory concentration (IC50) was 2.62 µM in the test on H2122, 2.33 µM with H2073 and 308 µM with H1819. Besides, in the test on HBEC30KT (setting [1]), the pIC50 is 3.44.
`O=C(Nc1cccc(F)c1)c1sc2ccccc2c1Cl` [SW202550]: the results for the IC50 with H2122, in the test with HCC4017 and in the test with HCC44 were 1.91 µM, 17.3 µM and 0.566 µM, respectively. In addition, in the test on HBEC30KT (setting [1]), the pIC50 is 3.98.
Turning to `COc1ccc2nc(NC(=O)c3cccc(C)c3)sc2c1` [SW202744], the IC50 with H2122 was found to be 1.16 µM; in the test with H2009, 24.8 µM; in the test on H2073 it was 25.6 µM; in the test with H1819, 53.5 µM. Further, the pIC50 in the test on HBEC30KT (setting [1]) is 4.44.
The matching figures for `COc1ccc2nc(NC(=O)c3ccc(F)cc3)sc2c1` [SW008027]: 0.899 µM, 24.6 µM, 5.1 µM, 67.3 µM and 4.49.
As for `COc1ccc2nc(NS(=O)(=O)c3ccc([N+](=O)[O-])cc3)sc2c1` [SW166933], the results for the half-maximal inhibitory concentration (IC50) in the test with H2122, in the test with H2073 and in the test on H1819 were 490 µM, 55.4 µM and 55.2 µM, respectively. Also, the pIC50 in the test with HBEC30KT (setting [1]) is 2.31.
Turning to `COc1ccc(C(=O)Nc2nc3ccccc3s2)cc1` [SW003087], the IC50 with H2122 came out at 2.62 µM; with H2009, 31.3 µM; with H2073, 11.7 µM; in the test on H1819, 37.4 µM. The pIC50 in the test with HBEC30KT (setting [1]) is 4.00.
For the molecule `O=C(NCCc1ccc(Br)cc1)C(=O)Nc1ccc(Cl)cc1` [SW207005-1], the pIC50 in the test with H2122 was not above 4.31; in the test with HBEC30KT (setting [2]), 4.31; in the test with H1819, not above 4.31.
For `COc1ccc(CCNC(=O)C(=O)Nc2cc(Cl)ccc2OC)cc1` [SW207011-1], the pIC50 was not above 4.31 in the test on H2122, 4.31 with HBEC30KT (setting [2]) and not above 4.31 with H1819.
Take `Cc1cccc(CCNC(=O)C(=O)Nc2ccc(Cl)cc2)c1` [SW207006-1]: the pIC50 in the test with H2122 is not above 4.31; with HBEC30KT (setting [2]), 4.31; in the test on H1819, not above 4.31.
Consider `COc1ccc(CCNC(=O)C(=O)Nc2ccccc2Br)cc1` [SW207009-1], for which the pIC50 is not above 4.31 in the test with H2122, 4.31 with HBEC30KT (setting [2]) and not above 4.31 with H1819.
Take `COc1ccc(CCNC(=O)C(=O)Nc2ccc(Cl)cc2)cc1OC` [SW207007-1]: the results for the pIC50 with H2122, in the test on HBEC30KT (setting [2]) and with H1819 were not above 4.31, 4.31 and not above 4.31, respectively.
Take `O=C(O)c1sc2ccccc2c1Cl` [SW138238]: the values for the IC50 in the test with H2009 and in the test on H1819 were 179 µM and 1170 µM, respectively. Moreover, in the test with HBEC30KT (setting [1]), the pIC50 was 2.31.
As to `CCOc1cccc(NC(=O)C(=O)NCCc2ccc(OC)cc2)c1` [SW207016-1], the pIC50 was 4.62 in the test with H2122, 4.31 in the test with HBEC30KT (setting [2]) and not above 4.31 with H1819.
Turning to `COc1ccc(C(=O)Nc2nc3cc(N)ccc3s2)cc1` [SW202739], the IC50 in the test on H2122 was found to be 114 µM; in the test on H2009, 137 µM; with H2073, 126 µM; with H1819, 132 µM. Besides, the pIC50 in the test on HBEC30KT (setting [1]) is 3.60.
Take `COc1ccccc1CCNC(=O)C(=O)Nc1ccc(Cl)cc1` [SW207004-1]: the pIC50 is not above 4.31 in the test with H2122, 4.31 in the test with HBEC30KT (setting [2]) and not above 4.31 in the test with H1819.
As for `O=S(=O)(Nc1nc2ccccc2s1)c1ccc(C(F)(F)F)cc1` [SW202754], the IC50 with H2122 was 35.4 µM; in the test with H2009 it was 32.7 µM; in the test on H2073, 24.8 µM; in the test with H1819, 30.2 µM. Also, the pIC50 with HBEC30KT (setting [1]) was 3.70.
In the case of `COc1ccc(CCNC(=O)C(=O)Nc2ccc(Cl)cc2C(F)(F)F)cc1` [SW207013-1], the pIC50 in the test on H2122 is not above 4.31; in the test with HBEC30KT (setting [2]), 4.31; in the test with H1819 it was not above 4.31.
On to `O=C(Nc1ccc(NC(=O)c2sc3ccccc3c2Cl)cc1)c1ccco1` [SW163400], for which the IC50 came to 0.897 µM in the test on H2122 and 723 µM in the test with HCC44. The pIC50 in the test with HBEC30KT (setting [1]) was 4.16.
As to `COc1ccc2nc(NS(=O)(=O)c3ccccc3)sc2c1` [SW202750], the pIC50 in the test on HBEC30KT (setting [1]) is 3.90. In addition, the values for the IC50 with H2073 and in the test with H1819 were 97.6 µM and 144 µM, respectively.
For the molecule `CCOC(=O)c1c(NC(=O)c2ccccc2)sc2c1CCCC2` [SW202858-1], the IC50 in the test with H2122 was found to be 2.69 µM; with H2009, 38.6 µM. Besides, the pIC50 in the test with HBEC30KT (setting [1]) is 4.31.
On to `COc1ccc(CCNC(=O)C(=O)Nc2ccc(C(F)(F)F)c(Br)c2)cc1` [SW207015-1], for which the pIC50 is 6.34 in the test on H2122, 4.36 in the test with HBEC30KT (setting [2]) and not above 4.31 with H1819.
As for `Cc1ccc(NC(=O)c2sc3ccccc3c2Cl)c(F)c1` [SW202551], the results for the IC50 with H2122, with HCC4017 and with HCC44 were 1.36 µM, 390 µM and 1.42 µM, respectively.
Regarding `COC(=O)c1ccc(C(=O)Nc2nc3cc(N)ccc3s2)cc1` [SW004400], the IC50 stood at 297 µM with H2122, 77.5 µM in the test on H2009, 182 µM in the test with H2073 and 54.6 µM in the test with H1819. Further, the pIC50 in the test with HBEC30KT (setting [1]) is 4.13.
Take `COc1ccc(C(=O)Nc2nc3ccc(OC)cc3s2)cc1` [SW202745]: the IC50 turned out to be 1.09 µM with H2122, 2.12 µM with H2073 and 64.3 µM with H1819. Further, in the test with HBEC30KT (setting [1]), the pIC50 was 3.47.
As for `COc1ccc(CCNC(=O)C(=O)Nc2ccc(OC(F)(F)F)c([N+](=O)[O-])c2)cc1` [SW207010-1], the pIC50 in the test on H2122 was 6.48; with HBEC30KT (setting [2]), 4.31; in the test with H1819, not above 4.31.
Regarding `COc1ccc(CCNC(=O)C(=O)Nc2ccc(C#N)cc2)cc1` [SW207017-1], the pIC50 in the test on H2122 was 6.15; in the test on HBEC30KT (setting [2]), 4.31; with H1819, not above 4.31.
`COc1ccc2nc(NC(=O)Cc3ccccc3)sc2c1` [SW202749]: the IC50 was 60.4 µM with H2122, 75.2 µM with H2009, 70.4 µM in the test with H2073 and 57.6 µM with H1819. Moreover, the pIC50 in the test with HBEC30KT (setting [1]) is 3.63.
In the case of `Nc1ccc2sc(NC(=O)c3ccccc3)nc2c1` [SW202741], the IC50 was found to be 8.13 µM with H2122, 8.42 µM in the test with H2009, 9.79 µM in the test on H2073 and 11.9 µM in the test on H1819. Moreover, the pIC50 in the test with HBEC30KT (setting [1]) was 4.89.
The matching figures for `COc1ccc2nc(NC(=O)c3ccc([N+](=O)[O-])o3)sc2c1` [SW202753]: 4.36 µM, 13.4 µM, 6.25 µM, 18.2 µM and 4.70.
